Laboratory results published in publication PMC6276119 (Biochemistry, 2016).

Molecular target: AtHCT (Arabidopsis thaliana, UniProt Q9FI78)
Experiment: X-ray crystal structure
Format: binding

Chain of AtHCT (Q9FI78 whole entry): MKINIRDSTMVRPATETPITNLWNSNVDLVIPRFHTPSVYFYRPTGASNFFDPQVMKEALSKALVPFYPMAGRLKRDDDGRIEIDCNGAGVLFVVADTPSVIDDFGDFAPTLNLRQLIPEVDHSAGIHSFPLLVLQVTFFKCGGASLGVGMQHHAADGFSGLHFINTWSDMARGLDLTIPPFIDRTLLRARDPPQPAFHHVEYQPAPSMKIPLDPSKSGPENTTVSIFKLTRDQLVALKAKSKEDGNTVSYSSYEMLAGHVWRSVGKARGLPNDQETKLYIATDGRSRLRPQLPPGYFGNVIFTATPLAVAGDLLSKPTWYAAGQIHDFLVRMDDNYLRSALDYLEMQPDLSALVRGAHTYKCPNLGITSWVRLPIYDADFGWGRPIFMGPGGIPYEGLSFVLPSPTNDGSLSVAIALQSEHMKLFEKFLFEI

`O=C(/C=C/c1ccc(O)cc1)O[C@@H]1CC(C(=O)O)=C[C@@H](O)[C@H]1O` [p-coumaroylshikimate] was tested, and the “X-ray crystal structure (soaked crystal)” value (acyl acceptor site, soaked with p-coumaroylshikimate in DMSO) was “apo-, p-coumaroyl CoA-bound, and p-coumaroyl shikimate-bound AtHCT”.
For `CC(C)(COP(=O)(O)OP(=O)(O)OC[C@H]1O[C@@H](n2cnc3c(N)ncnc32)[C@H](O)[C@@H]1OP(=O)(O)O)[C@@H](O)C(=O)NCCC(=O)NCCSC(=O)/C=C/c1ccc(O)cc1` [p-coumaroyl CoA], the “X-ray crystal structure (soaked crystal)” value (soaked with p-coumaroyl CoA in water) was “apo-, p-coumaroyl CoA-bound, and p-coumaroyl shikimate-bound AtHCT”.
